# Test results published in patent US20250090615A1, “MULTIVITAMIN FOR AUXILIARY REGULATION OF BLOOD PRESSURE AND PREPARATION METHOD AND APPLICATION THEREOF” (Changde Jizhi Biological Technology Co., Ltd, priority 2023, published 2025).
# Tested on: spontaneously hypertensive rats
# Test: Effects on spontaneously hypertensive rats (noninvasive tail artery systolic blood pressure)
# Format: in vivo, rat
# Settings: 2-month-old spontaneously hypertensive rats; intragastric once a day for 6 weeks; amlodipine besylate tablets 0.05 mg/kg, multivitamin 600 mg/kg; measured 3 hours after last administration; mean ± spread, n=10
# Description: Experimental animals are 2-month-old spontaneously hypertensive rats.
# Experimental methods are as follows. Spontaneous hypertensive rats are taken and randomly divided into a model group and respective experimental groups. Specifically, in experimental group 1, amlodipine besylate tablets are given by intragastric administration at a dose of 0.05 milligrams per kilogram (mg/kg) once a day for 6 weeks. In experimental groups 2-9, amlodipine besylate tablets are given by intragastric administration at a dose of 0.05 mg/kg, and the products of the embodiments or comparative embodiments are given by intragastric administration at a dose of 600 mg/kg once a day for 6 weeks. The model group is given the same volume of distilled water once a day for 6 weeks. At 3 hours after the last administration, systolic blood pressure data are obtained on the computer through the software of noninvasive tail artery blood pressure measuring instrument. Blood pressure of each rat is measured 6-10 times each time, and the mean value is taken as the measured systolic blood pressure of the rat.
compound,measurement,value
"CCOC(=O)C1=C(COCCN)NC(C)=C(C(=O)OC)C1c1ccccc1Cl (stereo not shown) [Experimental group 1, amlodipine besylate]",6 weeks 3 h systolic blood pressure,160.29 ± 2.46
